In assay [1] the target is Chymotrypsinogen A (Bos taurus, UniProt P00766). As to the kind of experiment: Inhibitory activity against alpha-chymotrypsin (alpha-CT).
Assay [2] concerns the target Trypsin (Sus scrofa, UniProt P00761). As to the kind of experiment: Inhibitory activity against porcine pancreatic trypsin (TRP).
In assay [3] the target is T1, Chymase (Homo sapiens, UniProt P23946).
T1 sequence (P23946 whole entry): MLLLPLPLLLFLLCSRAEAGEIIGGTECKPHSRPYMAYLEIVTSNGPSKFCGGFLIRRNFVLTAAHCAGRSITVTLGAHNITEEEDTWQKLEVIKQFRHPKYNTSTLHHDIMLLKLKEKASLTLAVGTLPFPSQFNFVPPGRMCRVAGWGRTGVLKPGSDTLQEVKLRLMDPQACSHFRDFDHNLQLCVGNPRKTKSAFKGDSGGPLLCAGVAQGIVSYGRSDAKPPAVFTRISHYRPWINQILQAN
As to the kind of experiment: Inhibitory activity against human serine protease chymase.

For assay [4], the target named is T2, Cathepsin G (Homo sapiens, UniProt P08311).
T2 sequence (P08311 whole entry): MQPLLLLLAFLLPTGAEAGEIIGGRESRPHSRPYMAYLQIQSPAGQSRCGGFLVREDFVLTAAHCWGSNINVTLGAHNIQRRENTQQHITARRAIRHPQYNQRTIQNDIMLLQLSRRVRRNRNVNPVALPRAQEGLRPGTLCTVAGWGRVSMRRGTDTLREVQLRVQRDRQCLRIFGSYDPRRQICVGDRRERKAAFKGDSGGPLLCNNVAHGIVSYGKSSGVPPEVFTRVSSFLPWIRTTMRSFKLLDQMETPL
As to the kind of experiment: Inhibitory activity against human leukocyte cathepsin G.

pIC50: −log10 of the molar value. Where only a bound is given, the exact number is not on record here.

The source of these data is ChEMBL document CHEMBL1133367, “Structure-activity relationship studies of chloromethyl ketone derivatives for selective human chymase inhibitors” (Bioorg Med Chem Lett, 2000).

Trypsin, sequence (P00761 whole entry): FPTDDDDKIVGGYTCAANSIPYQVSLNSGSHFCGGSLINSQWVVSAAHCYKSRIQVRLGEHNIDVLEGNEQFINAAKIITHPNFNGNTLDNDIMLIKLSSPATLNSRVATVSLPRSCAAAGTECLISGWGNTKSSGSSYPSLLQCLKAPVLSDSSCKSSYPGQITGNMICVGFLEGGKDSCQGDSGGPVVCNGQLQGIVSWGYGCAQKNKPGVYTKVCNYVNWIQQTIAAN

The pIC50 is the negative decadic logarithm of the IC50, by convention in mol/L. For the compound `O=C(Cc1ccccc1)N[C@@H](Cc1ccccc1)C(=O)CCl`, the values for the pIC50 in assay [1], in assay [2] and in assay [3] were 4.70, < 3.00 and 5.33, respectively.

Turning to `O=C(CCc1cccc(C(F)(F)F)c1)N[C@@H](Cc1ccccc1)C(=O)CCl`, the results for the pIC50 in assay [1] and in assay [2] were 4.70 and 4.47, respectively.

In the case of `O=C(CCc1ccc(F)cc1)N[C@@H](Cc1ccccc1)C(=O)CCl`, the pIC50 was 4.00 in assay [1], < 3.00 in assay [2] and 5.62 in assay [3].

In the case of `O=C(CCc1cccc(Cl)c1)N[C@@H](Cc1ccccc1)C(=O)CCl`, the results for the pIC50 in assay [1], in assay [2] and in assay [3] were 4.64, 4.36 and 6.05, respectively.

Turning to `COc1ccccc1CCC(=O)N[C@@H](Cc1ccccc1)C(=O)CCl`, the pIC50 is 5.57 in assay [1] and 4.47 in assay [2].

`COc1cccc(CCC(=O)N[C@@H](Cc2ccccc2)C(=O)CCl)c1`: the pIC50 in assay [1] was 4.07; in assay [2] it was < 3.00.

As to `O=C(CCc1cccc(O)c1)N[C@@H](Cc1ccccc1)C(=O)CCl`, the pIC50 in assay [1] was 5.28; in assay [2] it was 4.12; in assay [3], 5.74.

On to `O=C(CCCc1ccccc1)N[C@@H](Cc1ccccc1)C(=O)CCl`, for which the pIC50 in assay [1] is 4.59; in assay [2], 3.16; in assay [3], 5.60.

Take `O=C(CCc1cccc(Cl)c1Cl)N[C@@H](Cc1ccccc1)C(=O)CCl`: the pIC50 was 5.00 in assay [1], 4.01 in assay [2] and 6.40 in assay [3].

On to `O=C(N[C@@H](Cc1ccccc1)C(=O)CCl)OCc1ccccc1`, for which the pIC50 is 4.77 in assay [1], 3.68 in assay [2] and 6.40 in assay [3].

`CCc1ccc(CCC(=O)N[C@@H](Cc2ccccc2)C(=O)CCl)cc1`: the results for the pIC50 in assay [1] and in assay [2] were 4.43 and 3.92, respectively.

For the compound `CC(C)c1ccc(CCC(=O)N[C@@H](Cc2ccccc2)C(=O)CCl)cc1`, the pIC50 in assay [1] is 4.41; in assay [2], 5.40.

Take `O=C(CCc1ccc(C(F)(F)F)cc1)N[C@@H](Cc1ccccc1)C(=O)CCl`: the pIC50 in assay [1] was 4.77; in assay [2], 4.52.

As for `COc1cccc(CCC(=O)N[C@@H](Cc2ccccc2)C(=O)CCl)c1OC`, the pIC50 in assay [1] was 5.66; in assay [2], < 3.00.

As for `COc1ccc(CCC(=O)N[C@@H](Cc2ccccc2)C(=O)CCl)cc1`, the pIC50 in assay [1] was 5.66; in assay [2], < 3.00; in assay [4], 5.03.

Turning to `O=C(CCc1ccc(Cl)c(Cl)c1)N[C@@H](Cc1ccccc1)C(=O)CCl`, the results for the pIC50 in assay [1], in assay [2] and in assay [3] were 5.38, 4.55 and 5.43, respectively.

For the compound `O=C(CCc1ccccc1Cl)N[C@@H](Cc1ccccc1)C(=O)CCl`, the pIC50 in assay [1] was 4.01; in assay [2], 4.07; in assay [3], 6.22.

As to `O=C(CCc1ccc(O)cc1)N[C@@H](Cc1ccccc1)C(=O)CCl`, the pIC50 is 4.85 in assay [1], < 3.00 in assay [2] and 5.57 in assay [3].

Consider `O=C(/C=C/c1ccccc1)N[C@@H](Cc1ccccc1)C(=O)CCl`, for which the pIC50 in assay [1] is 5.06; in assay [2], 3.68; in assay [3], 4.82.

`Cc1cccc(CCC(=O)N[C@@H](Cc2ccccc2)C(=O)CCl)c1`: the pIC50 in assay [1] is 4.96; in assay [2], 3.54; in assay [3], 6.37.

For the compound `O=C(CCc1ccccc1F)N[C@@H](Cc1ccccc1)C(=O)CCl`, the pIC50 in assay [1] was 4.47; in assay [3], 6.44.

On to `O=C(N[C@@H](Cc1ccccc1)C(=O)CCl)c1ccccc1`, for which the pIC50 in assay [1] is 5.03; in assay [2], 3.62; in assay [3] it was 5.89.

As to `COc1ccc(CCC(=O)N[C@@H](Cc2ccccc2)C(=O)CCl)cc1OC`, the figures for the pIC50 in assay [1] and in assay [2] were 4.29 and < 3.00, respectively.

Consider `Cc1ccc(S(=O)(=O)N[C@@H](Cc2ccccc2)C(=O)CCl)cc1` [TPCK], for which the pIC50 in assay [1] was 3.85; in assay [2] it was 3.70; in assay [3], 5.48; in assay [4], 3.96.

`Cc1ccc(CCC(=O)N[C@@H](Cc2ccccc2)C(=O)CCl)cc1`: the pIC50 in assay [1] is 4.01; in assay [2], 3.59; in assay [3] it was 6.52.

As to `O=C(CCc1ccc(Cl)cc1)N[C@@H](Cc1ccccc1)C(=O)CCl`, the pIC50 in assay [1] is 4.74; in assay [2], < 3.00; in assay [3] it was 5.72.

With `O=C(CCc1ccccc1)N[C@@H](Cc1ccccc1)C(=O)CCl`, the results for the pIC50 in assay [1] and in assay [2] were 4.43 and < 3.00, respectively.

Turning to `O=C(CCc1cccc(F)c1)N[C@@H](Cc1ccccc1)C(=O)CCl`, the pIC50 in assay [1] was 4.36; in assay [2], < 3.00; in assay [3], 5.92.

On to `Cc1ccccc1CCC(=O)N[C@@H](Cc1ccccc1)C(=O)CCl`, for which the pIC50 in assay [1] was 4.92; in assay [2], 3.22; in assay [3], 6.11.

Regarding `O=C(CCCCc1ccccc1)N[C@@H](Cc1ccccc1)C(=O)CCl`, the pIC50 in assay [1] is 4.74; in assay [2] it was < 3.00; in assay [3] it was 5.92.
